Source: the supplement of paper PMC10627819

Columns and labels:
S. aureus DSM 20231 [1] = assay: fitness (endpoint OD595 vs no drug) (fraction); higher = more growth
Outline: (§1)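 Volumes were 30 µl per well, or 55 µl for S. pneumoniae, in 384-well plates inoculated at OD595 0.01. Media were TSB, LB Lennox or CY at 37 °C, and OD595 was read every 30 min for 14 h with first-reading background subtraction. Fitness is the ratio of optical density at stationary-phase entry to the robust mean of no-drug controls. That ratio is capped at 1.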

B. subtilis 168 [2] = assay: as above
Outline: as §1

S. pneumoniae D39V [3] = assay: as above
Outline: as §1

S. aureus Newman [4] = assay: as above
Outline: as §1

S. aureus DSM 20231 [5] = tested on: S. aureus DSM 20231
B. subtilis 168 [6] = tested on: B. subtilis 168
S. pneumoniae D39V [7] = tested on: S. pneumoniae D39V
S. aureus Newman [8] = tested on: S. aureus Newman
S. aureus DSM 20231 [9] = assay: Bliss interaction score (quartile over a dose matrix) (fitness difference); higher = more antagonism (negative = synergy)
Outline: (§2)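 At entry into stationary phase, OD595 was recorded and divided by the robust mean of the no-drug wells on that plate, with any value above 1 set to 1. This gives the fitness measure used throughout. Single-drug fitness was inferred from combination data, and the Bliss score, observed minus product-expected fitness, is shown as quartiles across technical, biological and donor/recipient replicates.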

B. subtilis 168 [10] = assay: as above
Outline: as §2

S. pneumoniae D39V [11] = assay: as above
Outline: as §2

S. aureus Newman [12] = assay: as above
Outline: as §2
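For Bliss interaction score (quartile over a dose matrix) in this document: first quartile when negative (synergy) and third quartile when positive (antagonism).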

CCN(CC)CCOC(=O)c1ccc(N)cc1 [Procaine]
fitness
Details	B. subtilis 168 [2]	S. aureus DSM 20231 [1]	S. aureus Newman [4]	S. pneumoniae D39V [3]
85.5 µg/mL	0.922	0.999	0.982	0.995
171 µg/mL	0.918	0.998	0.972	≥ 1
342 µg/mL	0.91	0.999	0.95	0.977

Details	MIC [µg/mL]
B. subtilis 168 [6]	> 342
S. aureus DSM 20231 [5]	> 342
S. aureus Newman [8]	> 342
S. pneumoniae D39V [7]	> 342

CCN(CC)CCOC(=O)c1ccc(N)cc1 [Procaine] + CC1=C\[C@@H](O)CC(=O)Cc2nc(co2)C(=O)N2CCC=C2C(=O)O[C@H](C(C)C)[C@H](C)/C=C/C(=O)NC\C=C\1 [Virginiamycin M1]
fitness
Details	first compound 85.5 µg/mL	first compound 171 µg/mL	first compound 342 µg/mL
B. subtilis 168 [2], partner 0.0625 µg/mL	0.957	0.962	0.904
B. subtilis 168 [2], partner 0.125 µg/mL	0.88	0.92	0.881
B. subtilis 168 [2], partner 0.25 µg/mL	0.905	0.892	0.882
S. aureus DSM 20231 [1], partner 0.0625 µg/mL	–	0.976	0.872
S. aureus DSM 20231 [1], partner 0.125 µg/mL	–	≥ 1	≥ 1
S. aureus DSM 20231 [1], partner 0.25 µg/mL	0.94	0.906	0.878
S. pneumoniae D39V [3], partner 0.5 µg/mL	≥ 1	≥ 1	≥ 1
S. pneumoniae D39V [3], partner 1 µg/mL	≥ 1	≥ 1	≥ 1
S. pneumoniae D39V [3], partner 2 µg/mL	0.948	0.926	0.951

fitness, one replicate
Details	first compound 85.5 µg/mL	first compound 171 µg/mL	first compound 342 µg/mL
S. aureus DSM 20231 [1], partner 0.5 µg/mL	0.82	0.747	0.842
S. aureus DSM 20231 [1], partner 1 µg/mL	0.726	0.774	0.779
S. aureus Newman [4], partner 0.0625 µg/mL	≥ 1	≥ 1	≥ 1
S. aureus Newman [4], partner 0.125 µg/mL	≥ 1	≥ 1	≥ 1
S. aureus Newman [4], partner 0.25 µg/mL	≥ 1	≥ 1	≥ 1
S. aureus Newman [4], partner 0.5 µg/mL	0.851	0.766	0.795
S. aureus Newman [4], partner 1 µg/mL	0.977	≥ 1	0.968
S. aureus Newman [4], partner 2 µg/mL	0.913	0.91	0.812
S. pneumoniae D39V [3], partner 0.15 µg/mL	0.976	0.936	0.971
S. pneumoniae D39V [3], partner 0.3 µg/mL	0.983	0.941	0.934

Details	Bliss interaction score
B. subtilis 168 [10]	-0.0324
S. aureus DSM 20231 [9]	-0.0838
S. aureus Newman [12]	0.0179
S. pneumoniae D39V [11]	0.036
